The values that follow come from PubChem BioAssay (NCI).

Some test systems named below: SN12C renal; SF-268 CNS; HL-60(TB) leukemia; DU-145 prostate; SNB-19 CNS; MALME-3M melanoma; NCI/ADR-RES ovarian; SR leukemia; HT29 colon; NCI-H522 lung; CCRF-CEM leukemia; M14 melanoma.
Common to all, as to assay: DTP human tumour cell line panel, 48 h

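Where inhibition never reached the appropriate level, the endpoint shown equals the highest concentration tested. Otherwise, values were interpolated linearly from a five-concentration, 48-hour dose response in 96-well plates. TGI is the concentration that stops growth completely.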

On to `O=C(/C=C/c1ccccc1)Nc1ccccc1SCCCCl`, for which the concentration for total growth inhibition (TGI) (commonly the concentration at which net growth stops) in the assay on SN12C renal was 98.5 µM; in the assay on SF-268 CNS it was greater than 100 µM; in the assay on HL-60(TB) leukemia, 43.6 µM; in the assay with DU-145 prostate it was greater than 100 µM; with SNB-19 CNS, greater than 95.4 µM; in the assay on MALME-3M melanoma it was greater than 100 µM. The TGI in the assay on NCI/ADR-RES ovarian is 35.1 µM; with SR leukemia, 64.7 µM; with HT29 colon it was greater than 41.4 µM; in the assay with NCI-H522 lung, 24.3 µM; with CCRF-CEM leukemia it was greater than 100 µM; with M14 melanoma, greater than 100 µM.

On to `C=CC1CN(C(=O)OCC)N(C(=O)OCC)C1CCc1ccccc1` (configuration not stated), for which the TGI in the assay on SN12C renal, in the assay with SF-268 CNS, in the assay on HL-60(TB) leukemia, in the assay with DU-145 prostate, with SNB-19 CNS and in the assay on MALME-3M melanoma was greater than 100 µM throughout. Moreover, the TGI in the assay on NCI/ADR-RES ovarian, with SR leukemia, in the assay with HT29 colon, with NCI-H522 lung, with CCRF-CEM leukemia and in the assay on M14 melanoma was greater than 100 µM throughout.

Turning to `COC1CC(OC2C(C)OC(OC3C(C)OC(OC4C(C)OC(O[C@H]5CC[C@@]6(C)C(=CC[C@]7(O)[C@@H]6C[C@@H](OC(C)=O)[C@@]6(C)[C@]7(O)CC[C@@]6(O)C(C)=O)C5)CC4OC)CC3OC)CC2OC)OC(C)C1O` (some centres not stated), the TGI with SN12C renal, with SF-268 CNS, in the assay on HL-60(TB) leukemia, with DU-145 prostate, in the assay with SNB-19 CNS and with MALME-3M melanoma was greater than 25 µM in each case. The TGI in the assay with NCI/ADR-RES ovarian, with SR leukemia, in the assay with HT29 colon, in the assay with NCI-H522 lung, with CCRF-CEM leukemia and in the assay with M14 melanoma was greater than 25 µM in each case.

On to `OC(CN(CCCl)CCCl)C(O)C(O)C(O)CN(CCCl)CCCl` (configuration not stated), for which the TGI in the assay with SN12C renal, in the assay with SF-268 CNS, in the assay on HL-60(TB) leukemia, in the assay with DU-145 prostate, with SNB-19 CNS and in the assay with MALME-3M melanoma was greater than 100 µM in each case. Moreover, the TGI in the assay on NCI/ADR-RES ovarian, with SR leukemia, in the assay with HT29 colon, with NCI-H522 lung, with CCRF-CEM leukemia and with M14 melanoma was greater than 100 µM throughout.

On to `COC(=O)c1cc(NC(=O)Cc2c[nH]c3ccccc23)cn1C`, for which the TGI with SN12C renal, in the assay with SF-268 CNS, with HL-60(TB) leukemia, in the assay on DU-145 prostate, with SNB-19 CNS and in the assay with MALME-3M melanoma was greater than 100 µM throughout. In addition, the TGI with NCI/ADR-RES ovarian, in the assay on SR leukemia, in the assay with HT29 colon, in the assay with NCI-H522 lung, with CCRF-CEM leukemia and with M14 melanoma was greater than 100 µM each time.

Turning to `CSc1ccc(Nc2cc(=O)[nH]c(=O)[nH]2)cc1`, the TGI in the assay on SN12C renal, in the assay on SF-268 CNS, with HL-60(TB) leukemia, with DU-145 prostate, in the assay on SNB-19 CNS and with MALME-3M melanoma was greater than 100 µM in each case. Moreover, the TGI in the assay on NCI/ADR-RES ovarian, in the assay with SR leukemia, in the assay on HT29 colon, with NCI-H522 lung, with CCRF-CEM leukemia and in the assay with M14 melanoma was greater than 100 µM each time.
